# Results reported in patent US20240254109A1, “SALT CONTAINING PIPERAZINE POLYCYCLIC DERIVATIVE, CRYSTAL FORM THEREOF, PREPARATION METHOD THEREFOR, AND USE THEREOF” (Shanghai Hansoh Biomedical Co., Ltd., priority 2021, published 2024).
# Experiments:
# Type in all cases: physicochemical
# [1] = Crystal form stability study of hydrochloride for 30 days
# Experimental: 9. Crystal Form Stability Study of Hydrochloride for 30 Days
# The 30 days stability of hydrochloride of N-(trans-3-(2-(4-(2,3-dichlorophenyl)piperazin-1-yl)ethyl)cyclobutyl)oxazole-2-carboxamide under four conditions of 60° C. (closed), 40° C. & RH 75% (open), 25° C./RH 92.5% (open) and light (5000±500 Lux) was detected, which provided scientific basis for the production, packaging, storage and transportation conditions of drugs.
# The diluent 80% methanol solution was added to prepare a solution containing about 0.5 mg/mL hydrochloride. The mixture was sonicated for 30 min to produce a clear solution. 1 mL of the solution was filtered and measured by HPLC. See “2.3.4” for the HPLC analysis method. The content of related substances was calculated according to the peak area normalization method, and the results are shown in Table 32 below.
# [2] = Solubility of hydrochloride in different media; conditions: 37° C.
# Experimental: 2.1.5 Solubility of Hydrochloride in Different Media
# 1.0 mg of compound was weighed into a 2 mL glass bottle, then 1 mL of dissolving medium was added respectively. The glass bottle was shaken overnight on an electrothermal constant temperature shaking tank, and the temperature was set to 37° C. After 24 hours, the sample solution was filtered with a […] mixed water fiber filter membrane, and the subsequent filtrate was taken to test its content by HPLC. HPLC detection methods are described in “Stability Study Conditions”.
# [3] = Hygroscopicity study of salt (DVS)
# Source text: 2.1.4 Hygroscopicity Study of Salt
# The hygroscopicity of a drug refers to the characteristics of the drug's ability or degree of water absorption at a certain temperature and humidity. […] (DVS) was used to characterize the ability of drugs to absorb water under different humidity conditions. The instrument parameters are detailed in the table below.
# [4] = Stability study of salt (5 days and 10 days, HPLC related substances)
# Experimental: 2.1.3 Stability Study of Salt
# Hydrochloride and p-toluenesulfonate of N-(trans-3-(2-(4-(2,3-dichlorophenyl)piperazin-1-yl)ethyl)cyclobutyl)oxazole-2-carboxamide were weighed about 1 mg, respectively, and then placed under light (5000 lux), high temperature (60° C.), high humidity (92.50 RH), high temperature and high humidity (50° C. and 75% RH) for 5 days and 10 days, then a diluent DMSO was added to prepare a solution with salt concentration of about 1 mg/mL.
# The chromatographic peak area normalization method was used to calculate the changes of related substances.
# [5] = WS-30 d (high temperature and high humidity)
# [6] = GWGS-5 d (high temperature and high humidity)
# [7] = GWGS-10 d (high temperature and high humidity)
# [8] = high temperature, light, high humidity, high temperature and high humidity, 5 and 10 days
smiles,measurement,setting,value
"Cl.O=C(N[C@H]1C[C@H](CCN2CCN(c3cccc(Cl)c3Cl)CC2)C1)c1ncco1 [N-(trans-3-(2-(4-(2,3-dichlorophenyl)piperazin-1-yl)ethyl)cyclobutyl)oxazole-2-carboxamide hydrochloride]",RRT 1.00 Area %,[1]; 0 d,99.44%
same,RRT 1.07 Area %,[1]; 0 d,0.07%
same,RRT 1.93 Area %,[1]; 0 d,0.42%
same,RRT 2.43 Area %,[1]; 0 d,0.07%
same,RRT 1.00 Area %,[1]; GS-30 d (high humidity),99.43%
same,RRT 1.07 Area %,[1]; GS-30 d (high humidity),0.11%
same,RRT 1.93 Area %,[1]; GS-30 d (high humidity),0.39%
same,RRT 2.43 Area %,[1]; GS-30 d (high humidity),0.07%
same,RRT 1.00 Area %,[1]; GW-30 d (high temperature),99.51%
same,RRT 1.07 Area %,[1]; GW-30 d (high temperature),0.08%
same,RRT 1.93 Area %,[1]; GW-30 d (high temperature),0.41%
same,RRT 1.00 Area %,[1]; GZ-30 d (light),99.43%
same,RRT 1.07 Area %,[1]; GZ-30 d (light),0.09%
same,RRT 1.93 Area %,[1]; GZ-30 d (light),0.41%
same,RRT 2.43 Area %,[1]; GZ-30 d (light),0.08%
same,RRT 1.00 Area %,[1]; [5],99.46%
same,RRT 1.07 Area %,[1]; [5],0.09%
same,RRT 1.93 Area %,[1]; [5],0.38%
same,RRT 2.43 Area %,[1]; [5],0.07%
same,solubility in different pH buffers (dependence),[2]; 24 hours,pH-dependent
same,solubility,[2]; acidic conditions,better solubility
same,solubility,[2]; neutral or alkaline conditions,poor solubility
same,solubility in water compared with free base,[2]; water,greatly improved
same,hygroscopicity (DVS),[3],slightly hygroscopic
same,RRT 1.000 Area %,[4]; 0 d,99.619%
same,RRT 1.050 Area %,[4]; 0 d,0.153%
same,RRT 1.200 Area %,[4]; 0 d,0.163%
same,RRT 1.550 Area %,[4]; 0 d,0.065%
same,total Area % (related substances),[4]; 0 d,0.381%
same,RRT 0.220 Area %,[4]; GS-5 d (high humidity),0.055%
same,RRT 1.000 Area %,[4]; GS-5 d (high humidity),99.556%
same,RRT 1.050 Area %,[4]; GS-5 d (high humidity),0.160%
same,RRT 1.200 Area %,[4]; GS-5 d (high humidity),0.161%
same,RRT 1.550 Area %,[4]; GS-5 d (high humidity),0.069%
same,total Area % (related substances),[4]; GS-5 d (high humidity),0.444%
same,RRT 1.000 Area %,[4]; GS-10 d (high humidity),99.619%
same,RRT 1.050 Area %,[4]; GS-10 d (high humidity),0.153%
same,RRT 1.200 Area %,[4]; GS-10 d (high humidity),0.163%
same,RRT 1.550 Area %,[4]; GS-10 d (high humidity),0.065%
same,total Area % (related substances),[4]; GS-10 d (high humidity),0.381%
same,RRT 1.000 Area %,[4]; GW-5 d (high temperature),99.604%
same,RRT 1.050 Area %,[4]; GW-5 d (high temperature),0.164%
same,RRT 1.200 Area %,[4]; GW-5 d (high temperature),0.163%
same,RRT 1.550 Area %,[4]; GW-5 d (high temperature),0.068%
same,total Area % (related substances),[4]; GW-5 d (high temperature),0.396%
same,RRT 1.000 Area %,[4]; GW-10 d (high temperature),99.590%
same,RRT 1.050 Area %,[4]; GW-10 d (high temperature),0.170%
same,RRT 1.200 Area %,[4]; GW-10 d (high temperature),0.163%
same,RRT 1.550 Area %,[4]; GW-10 d (high temperature),0.077%
same,total Area % (related substances),[4]; GW-10 d (high temperature),0.410%
same,RRT 1.000 Area %,[4]; [6],99.603%
same,RRT 1.050 Area %,[4]; [6],0.144%
same,RRT 1.200 Area %,[4]; [6],0.165%
same,RRT 1.550 Area %,[4]; [6],0.088%
same,total Area % (related substances),[4]; [6],0.397%
same,RRT 1.000 Area %,[4]; [7],99.614%
same,RRT 1.050 Area %,[4]; [7],0.157%
same,RRT 1.200 Area %,[4]; [7],0.161%
same,RRT 1.550 Area %,[4]; [7],0.067%
same,total Area % (related substances),[4]; [7],0.386%
same,RRT 1.000 Area %,[4]; GZ-5 d (light),99.617%
same,RRT 1.050 Area %,[4]; GZ-5 d (light),0.148%
same,RRT 1.200 Area %,[4]; GZ-5 d (light),0.160%
same,RRT 1.550 Area %,[4]; GZ-5 d (light),0.075%
same,total Area % (related substances),[4]; GZ-5 d (light),0.383%
same,RRT 1.000 Area %,[4]; GZ-10 d (light),99.604%
same,RRT 1.050 Area %,[4]; GZ-10 d (light),0.162%
same,RRT 1.200 Area %,[4]; GZ-10 d (light),0.158%
same,RRT 1.550 Area %,[4]; GZ-10 d (light),0.077%
same,total Area % (related substances),[4]; GZ-10 d (light),0.396%
same,growth of impurities,[4]; [8],no significant growth of impurities
same,stability of salt,[4]; [8],good stability
